Measured values from patent US20240132431A1, “METHOD FOR ALKYLATING ACIDIC FUNCTIONAL GROUP” (Chugai Seiyaku Kabushiki Kaisha, priority 2021, published 2024).

Molecular target: T1, Bcl-2 protein (Recombinant Human Bcl-2 Protein) (Homo sapiens, UniProt P10415)
T1 construct: purchased Novus NBP2-34889
Test: Binding evaluation of mixture library compounds to Bcl-2 using AS-MS (affinity selection mass spectrometry)
Conditions: ASMS Ratio(%)=(A−C)/B×100; for ASMS ratio (%) n = 2: replicate n = 2; for ASMS ratio (%) n = 1: replicate n = 1
Description: For one well of MICROPLATE, 96-well, PP, V-BOTTOM (Greiner bio-one, 651201), DMSO solutions of 12 mixtures (prepared to approximately 0.58 mM based on calculations from the average molecular weight of each mixture), in each of which 100 compounds are mixed, were each dispensed, and dispensed into a total of 12 wells, where the 12 mixtures are mixAI-B4J-01, mixAI-B1M-01, mixAI-B1K-01, mixAI-B10-01, mixAI-B1A-01, mixAI-B3A-01, mixAI-B21-01, mixAI-B2L-01, mixAI-B2N-01, mixAI-B2A-01, mixAI-B2Q-01, and mixAI-B2R-01 listed in [Table AI-03-B4J-01], [Table AI-03-B1M-01], [Table AI-03-B1K-01], [Table AI-03-B10-01], [Table AI-03-B1A-01], [Table AI-03-B3A-01], [Table AI-03-B2I-01], [Table AI-03-B2L-01], [Table AI-03-B2N-01], [Table AI-03-B2A-01], [Table AI-03-B2Q-01], and [AI-03-B2R-01] shown in Example 6. Using the LABCYTE ECHO® 555 Acoustic Dispensing System (BECKMAN COULTER), 70 nL was collected from each of the 12 wells into one arbitrary well to prepare a sample solution with 1200 compounds in the mixed state (the presence of 1152 compounds had already been identified when prepared in Example 6-5-3). (In the present specification, the mixture collected in this one well is referred to as one library.) Furthermore, a Bcl-2 protein (Novus, NBP2-34889, Recombinant Human Bcl-2 Protein, Lot E60145051) (19.2 μL) that had been prepared in advance to be 20.9 μM using a Tris-HCl buffer (25 mM Tris-HCl pH 7.4, 150 mM NaCl, 0.025% Tween-20, 1 mM DTT) was added to the well in which 1200 compounds (the presence of 1152 compounds had already been identified when prepared in Example 6-5-3) were dispensed (final compound concentration […], final Bcl-2 concentration 20 μM), and the mixture was incubated in the dark at 23° C. for 1 hour. Next, using the 96-well MacroSpin column, P-2 Material (Harvard, 74-5655) that had been swollen, conditioning of the 96-well MacroSpin column was performed three times by centrifugation with 200 μL of an assay buffer (25 mM Tris-HCl pH 7.4, 150 mM NaCl, 0.025% Tween-20, 1 mM DTT), 2000 XG, 4° C., 2 min. Subsequently, 20 μL of the sample after incubation was added to the 96-well MacroSpin column, P-2 Material, that had been conditioned, and SEC treatment was performed by centrifugation at 2000×G for 2 minutes. To the liquid passed from the SEC, 32 μL of a 1:1 mixed solution of acetonitrile and methanol (LC/MS grade, Fujifilm Wako Pure Chemical Corporation) was added, the mixture was centrifuged at 1800×G, 4° C., 5 min, and the supernatant was used as analysis sample ASMS (A), while a sample that had been prepared by the same operations at 1200 compounds/well and to which only the Tris-HCl buffer had been added without the Bcl-2 protein was incubated under the same conditions, no 96-well MacroSpin column treatment was performed, the same organic solvent was added, and the supernatant solution obtained by centrifugation was used as STD (B). Next, a sample that had been prepared by the same operations at 1200 compounds/well and to which only the Tris-HCl buffer had been added without the Bcl-2 protein was incubated under the same conditions, the same 96-well MacroSpin column treatment was performed, the same organic solvent was added, and the supernatant solution obtained by centrifugation was used as BK (C), and measured by reversed phase LC/MS.
Then, analysis of the 1200 compounds was carried out for samples A, B, and C with TraceFinder 5.1 (Thermo Fisher Scientific) and CHANCE Software (in-house), and the ASMS Ratio (%) was calculated according to the following calculation formula.
Calculation formula: ASMS Ratio(%)=(A−C)/B×100

[1] = AS-MS, mixture of 1200 compounds, Bcl-2
[2] = AS-MS on the mixture of 1200 library compounds

T1 sequence (P10415 whole entry): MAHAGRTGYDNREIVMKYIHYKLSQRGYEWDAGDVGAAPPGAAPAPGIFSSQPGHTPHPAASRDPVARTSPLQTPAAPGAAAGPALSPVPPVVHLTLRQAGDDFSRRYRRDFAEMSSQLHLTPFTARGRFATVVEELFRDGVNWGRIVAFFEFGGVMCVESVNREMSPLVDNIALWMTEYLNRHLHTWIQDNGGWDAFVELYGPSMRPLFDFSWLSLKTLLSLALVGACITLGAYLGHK

Substance | ASMS ratio (%) n = 2 [1] | ASMS ratio (%) n = 1 [1] | ASMS ratio (%) n = 1 [2] | ASMS ratio (%) n = 2 [2]
4-[4-[[3-Ethoxy-5-(3-ethoxyphenyl)phenyl]methyl]piperazin-1-yl]-N-propylbenzamide [B1M009-01] | 0.0% | – | – | –
4-[4-[[3-Ethoxy-5-(5-ethoxypyridin-3-yl)phenyl]methyl]piperazin-1-yl]-N-propylbenzamide [B1M011-01] | 7.5% | 18.6% | – | –
4-[4-[[4-(3-Ethoxyphenyl)-2,6-dimethoxyphenyl]methyl]piperazin-1-yl]-N-propylbenzamide [B1M020-01] | 0.0% | 0.0% | – | –
4-[4-[[4-(3-Ethoxyphenyl)-2-ethylphenyl]methyl]piperazin-1-yl]-N-propylbenzamide [B1M069-01] | −4.4% | −0.2% | – | –
4-[4-[[4-(3-Ethoxyphenyl)-2-methoxyphenyl]methyl]piperazin-1-yl]-N-propylbenzamide [B1M093-01] | – | – | 0.0% | 0.0%
4-[4-[[4-(3-Ethoxyphenyl)naphthalen-1-yl]methyl]piperazin-1-yl]-N-propylbenzamide [B1M044-01] | 1.1% | 1.0% | – | –
4-[4-[[4-(3-Ethoxyphenyl)thiophen-2-yl]methyl]piperazin-1-yl]-N-propylbenzamide [B1M048-01] | 0.3% | 0.9% | – | –
4-[4-[[4-(5-Ethoxypyridin-3-yl)-2,6-dimethoxyphenyl]methyl]piperazin-1-yl]-N-propylbenzamide [B1M022-01] | 6.7% | −13.6% | – | –
4-[4-[[4-(5-Ethoxypyridin-3-yl)-2-methoxyphenyl]methyl]piperazin-1-yl]-N-propylbenzamide [B1M099-01] | – | – | −0.7% | −0.3%
4-[4-[[4-(5-Ethoxypyridin-3-yl)-3-fluorophenyl]methyl]piperazin-1-yl]-N-propylbenzamide [B1M085-01] | – | – | 0.0% | 0.0%
4-[4-[[4-(5-Ethoxypyridin-3-yl)-3-methylphenyl]methyl]piperazin-1-yl]-N-propylbenzamide [B1M064-01] | −4.3% | 5.4% | – | –
4-[4-[[4-(5-Ethoxypyridin-3-yl)naphthalen-1-yl]methyl]piperazin-1-yl]-N-propylbenzamide [B1M046-01] | −1.2% | 0.7% | – | –
4-[4-[[4-(5-Ethoxypyridin-3-yl)thiophen-2-yl]methyl]piperazin-1-yl]-N-propylbenzamide [B1M050-01] | −0.2% | −2.0% | – | –
6-[4-[2-[2-(3-Ethoxyphenyl)ethynyl]benzoyl]piperazin-1-yl]-N-propylpyridazine-3-carboxamide [B1M095-01] | – | – | 0.0% | 0.0%
6-[4-[2-[2-(5-Ethoxypyridin-3-yl)ethynyl]benzoyl]piperazin-1-yl]-N-propylpyridazine-3-carboxamide [B1M096-01] | – | – | – | 0.0%
6-[4-[3-(3-Ethoxyphenyl)-5-(trifluoromethyl)benzoyl]piperazin-1-yl]-N-propylpyridazine-3-carboxamide [B1M089-01] | – | – | 3.9% | 0.2%

Substance | ASMS ratio (%) n = 2 [1] | ASMS ratio (%) n = 1 [1] | ASMS ratio (%) n = 1 [2] | ASMS ratio (%) n = 2 [2]
6-[4-[3-(5-Ethoxypyridin-3-yl)-5-(trifluoromethyl)benzoyl]piperazin-1-yl]-N-propylpyridazine-3-carboxamide [B1M007-01] | 0.3% | 0.3% | – | –
6-[4-[3-[2-(3-Ethoxyphenyl)ethynyl]-5-(trifluoromethyl)benzoyl]piperazin-1-yl]-N-propylpyridazine-3-carboxamide [B1M013-01] | −1.1% | 2.9% | – | –
6-[4-[3-[2-(3-Ethoxyphenyl)phenyl]propanoyl]piperazin-1-yl]-N-propylpyridazine-3-carboxamide [B1M067-01] | −87.4% | −1.6% | – | –
6-[4-[3-[2-(5-Ethoxypyridin-3-yl)ethynyl]-5-(trifluoromethyl)benzoyl]piperazin-1-yl]-N-propylpyridazine-3-carboxamide [B1M018-01] | 0.0% | 0.0% | – | –
6-[4-[3-[2-(5-Ethoxypyridin-3-yl)phenyl]propanoyl]piperazin-1-yl]-N-propylpyridazine-3-carboxamide [B1M077-01] | 3.1% | −0.7% | – | –
6-[4-[3-[4-(3-Ethoxyphenyl)pyrazol-1-yl]-5-(trifluoromethyl)benzoyl]piperazin-1-yl]-N-propylpyridazine-3-carboxamide [B1M024-01] | 0.0% | 0.0% | – | –
6-[4-[3-[4-(5-Ethoxypyridin-3-yl)pyrazol-1-yl]-5-(trifluoromethyl)benzoyl]piperazin-1-yl]-N-propylpyridazine-3-carboxamide [B1M030-01] | −5.9% | 0.0% | – | –
6-[4-[3-tert-Butyl-5-(3-ethoxyphenyl)benzoyl]piperazin-1-yl]-N-propylpyridazine-3-carboxamide [B1M060-01] | 0.0% | 0.0% | – | –
6-[4-[3-tert-Butyl-5-(5-ethoxypyridin-3-yl)benzoyl]piperazin-1-yl]-N-propylpyridazine-3-carboxamide [B1M061-01] | −13.1% | −3.3% | – | –
6-[4-[4-(3-Ethoxyphenyl)-3-fluorobenzoyl]piperazin-1-yl]-N-propylpyridazine-3-carboxamide [B1M087-01] | – | – | 3.8% | 3.2%
6-[4-[4-(3-Ethoxyphenyl)-3-methylbenzoyl]piperazin-1-yl]-N-propylpyridazine-3-carboxamide [B1M036-01] | −1.2% | 6.7% | – | –
6-[4-[4-(3-Ethoxyphenyl)naphthalene-1-carbonyl]piperazin-1-yl]-N-propylpyridazine-3-carboxamide [B1M071-01] | 24.4% | 34.0% | – | –
6-[4-[4-(3-Ethoxyphenyl)thiophene-2-carbonyl]piperazin-1-yl]-N-propylpyridazine-3-carboxamide [B1M081-01] | – | – | 0.0% | 0.0%
6-[4-[4-(5-Ethoxypyridin-3-yl)-3-fluorobenzoyl]piperazin-1-yl]-N-propylpyridazine-3-carboxamide [B1M088-01] | – | – | 0.0% | 0.0%
6-[4-[4-(5-Ethoxypyridin-3-yl)-3-methylbenzoyl]piperazin-1-yl]-N-propylpyridazine-3-carboxamide [B1M037-01] | 2.3% | −1.5% | – | –
